The source of these data is patent US20130184257A1, “PIPERIDINYL-SUBSTITUTED LACTAMS AS GPR119 MODULATORS” (priority 2010, published 2013).

This assay relates to modified version of the GPR119 receptor (94% identity to human receptor) stably expressed in HEK-293 cells. Kind of assay: cAMP Production Assay (LANCE cAMP kit, TR-FRET). The assay is classed as cell-based. The note with it: for cAMP production in HEK-293 cells: HEK-293 cells expressing modified GPR119, test compounds 0.2 nM to 10 μM, one-hour incubation at ambient temperature; for Fold over baseline: increase in cAMP relative to basal levels, 1.5-fold or greater = agonist activity. The method, then:
The assay utilized HEK-293 cells that stably express a modified version of the GPR119 receptor (94% identity to human receptor), under the control of a CMV promoter containing a tet-on element for tetracycline-inducible expression. GPR119 agonist-induced cyclic AMP (cAMP) production was measured in this cell line using the LANCE cAMP kit (Perkin Elmer, Waltham, Mass.). To generate a working stock of cells for the assay, cells were treated overnight with 1 μg/mL doxycycline at 37° C. in the presence of 5% CO2 to induce receptor expression. Cells were then harvested by enzymatic dissociation with 0.05% trypsin, resuspended in freezing medium (DMEM growth medium with 10% each of fetal bovine serum and DMSO), aliquoted and frozen at −80° C. On the day of the assay, frozen cells were thawed, washed 1× in PBS and resuspended in Hank's buffered salt solution (HBSS) containing 5 mM HEPES, 0.1% BSA and Alexa Fluor 647-conjugated anti-cAMP antibody (diluted 1:100). The cell suspension was then transferred to a Proxiplate Plus white 384-well assay plate (Perkin-Elmer) at 2000 cells/well. Test compounds at final concentrations ranging from 0.2 nM to 10 μM were added to the assay plate, followed by a one-hour incubation at ambient temperature (volume=10 μL/well). DMSO concentration was held constant at 0.5%. After incubation with test compounds, 10 μL of a detergent buffer containing a biotinylated cAMP/Europium-conjugated streptavidin complex (Europium-labeled cAMP tracer) were added to each well on the assay plate, followed by a 2-hour incubation at ambient temperature. During this incubation cAMP released from lysed cells competes with the Europium-labeled cAMP tracer for binding to the Alexa Fluor 647-conjugated antibody. […] Cellular cAMP levels were then determined by interpolation of raw signal data using a cAMP standard curve. Compounds were determined to have agonist activity if they stimulated a 1.5-fold or greater increase in cAMP relative to basal levels.

As for `CS(=O)(=O)c1cc(F)c(N[C@H]2CCN(C3CCN(c4noc(C(F)(F)F)n4)CC3)C2=O)c(F)c1` [Example 22, (S)-3-(2,6-difluoro-4-(methylsulfonyl)phenylamino)-1-(1-(5-(trifluoromethyl)-1,2,4-oxadiazol-3-yl)piperidin-4-yl)pyrrolidin-2-one], the “cAMP production in HEK-293 cells” value came out at 17.6 nmol and the Fold over baseline was found to be 3.6.

`CS(=O)(=O)c1cc(F)c(N[C@H]2CCN(C3CCN(c4noc(C(F)(F)F)n4)CC3)C2=O)cc1F` [Example 23, (S)-3-(2,5-difluoro-4-(methylsulfonyl)phenylamino)-1-(1-(5-(trifluoromethyl)-1,2,4-oxadiazol-3-yl)piperidin-4-yl)pyrrolidin-2-one]: the “cAMP production in HEK-293 cells” value came out at 19.2 nmol and the Fold over baseline is reported as 3.6.

Consider `CS(=O)(=O)c1ccc(O[C@H]2CCN(C3CCN(c4noc(C(F)(F)F)n4)CC3)C2=O)c(F)c1` [Example 24, (S)-3-(2-fluoro-4-(methylsulfonyl)phenoxy)-1-(1-(5-(trifluoromethyl)-1,2,4-oxadiazol-3-yl)piperidin-4-yl)pyrrolidin-2-one], for which the “cAMP production in HEK-293 cells” value turned out to be 81.6 nmol and the Fold over baseline is given as 4.4.

Turning to `CS(=O)(=O)c1cc(F)c(N[C@H]2CCCN(C3CCN(c4noc(C(F)(F)F)n4)CC3)C2=O)cc1F` [Example 25, (S)-3-(2,5-difluoro-4-(methylsulfonyl)phenylamino)-1′-(5-(trifluoromethyl)-1,2,4-oxadiazol-3-yl)-1,4′-bipiperidin-2-one], the “cAMP production in HEK-293 cells” value amounted to 49.0 nmol and the Fold over baseline is listed as 2.9.

As to `CS(=O)(=O)c1cc(F)c(O[C@H]2CCN(C3CCN(c4noc(C(F)(F)F)n4)CC3)C2=O)cc1F` [Example 27, (S)-3-(2,5-difluoro-4-(methylsulfonyl)phenoxy)-1-(1-(5-(trifluoromethyl)-1,2,4-oxadiazol-3-yl)piperidin-4-yl)pyrrolidin-2-one], the “cAMP production in HEK-293 cells” value was determined as 98.9 nmol and the Fold over baseline amounted to 5.1.

Turning to `CS(=O)(=O)c1cc(F)c(O[C@H]2CCN(C3CCN(c4noc(C(F)(F)F)n4)CC3)C2=O)c(F)c1` [Example 28, (S)-3-(2,6-difluoro-4-(methylsulfonyl)phenoxy)-1-(1-(5-(trifluoromethyl)-1,2,4-oxadiazol-3-yl)piperidin-4-yl)pyrrolidin-2-one], the “cAMP production in HEK-293 cells” value came out at 101.5 nmol and the Fold over baseline is on record as 5.0.

Take `CS(=O)(=O)c1ccc(N[C@H]2CCCN(C3CCN(c4noc(C(F)(F)F)n4)CC3)C2=O)c(F)c1` [Example 29, (S)-3-(2-fluoro-4-(methylsulfonyl)phenylamino)-1′-(5-(trifluoromethyl)-1,2,4-oxadiazol-3-yl)-1,4′-bipiperidin-2-one]: the “cAMP production in HEK-293 cells” value came out at 47.6 nmol and the Fold over baseline turned out to be 3.0.

In the case of `CS(=O)(=O)c1cc(F)c(N[C@H]2CCN(C3CCN(c4noc(C(F)F)n4)CC3)C2=O)cc1F` [Example 30, (S)-3-(2,5-difluoro-4-(methylsulfonyl)phenylamino)-1-(1-(5-(difluoromethyl)-1,2,4-oxadiazol-3-yl)piperidin-4-yl)pyrrolidin-2-one], the “cAMP production in HEK-293 cells” value stood at 7.5 nmol and the Fold over baseline came to 3.1.

For `CS(=O)(=O)c1cc(F)c(N[C@H]2CCN(C3CCN(c4noc(C(F)F)n4)CC3)C2=O)c(F)c1` [Example 31, (S)-3-(2,6-difluoro-4-(methylsulfonyl)phenylamino)-1-(1-(5-(difluoromethyl)-1,2,4-oxadiazol-3-yl)piperidin-4-yl)pyrrolidin-2-one], the “cAMP production in HEK-293 cells” value was determined as 4.9 nmol and the Fold over baseline is 2.3.

For `CS(=O)(=O)c1cc(F)c(N[C@H]2CCCN(C3CCN(c4noc(C(F)F)n4)CC3)C2=O)c(F)c1` [Example 32, (S)-3-(2,6-difluoro-4-(methylsulfonyl)phenylamino)-1′-(5-(difluoromethyl)-1,2,4-oxadiazol-3-yl)-1,4′-bipiperidin-2-one], the “cAMP production in HEK-293 cells” value amounted to 7.9 nmol and the Fold over baseline worked out at 2.4.
